This note sets out measurements from patent publication US8143276B2, “4-thio substituted quinoline and naphthyridine compounds” (XTL Biopharmaceuticals Ltd., priority 2007, dated 2012).

Each structure is given as a SMILES string. Where two headings read alike, the source gives them in different places.

The test system of one data set is HCV Replicon. Put plainly: HCV Replicon Luciferase Assay. To be noted: Huh-Luc-Neo cells, 48 h incubation, luciferase reporter, read-out: Replicon Inhibition*, Luciferase. The format is cell-based, Hepatitis C virus. The protocol: The identification of inhibitors of HCV replication and/or proliferation has been facilitated by the development of a cell-based system to study HCV replication. Inhibition of HCV replication may be performed using the HCV Replicon Assay developed in the laboratories of Bartenschlager (Lohman et al, Science 285, 110-113, 1999) and Rice (Blight et al, Science 290, 1972-1974, 2000). The assay is performed using the Huh-Luc-Neo cell line (Lohman et al, Science 285, 110-113, 1999). Huh-Luc-Neo cells are a human hepatoma cell line (Huh-7) stably expressing a bi-cistronic subgenomic replicon containing the HCV IRES in which the structural proteins of HCV have been deleted and replaced by a construct containing sequences coding for the firefly luciferase reporter gene, the neomycin selectable marker and the EMCV IRES to direct expression of a truncated HCV genome expressing the […] NS3, NS4A, NS4B, NS5A, and NS5B. HCV targets through which inhibitors could act to inhibit replication include the NS3 protease, the helicase/ATPase, NS5A, the NS5B-RNA dependent RNA polymerase, and the HCV IRES.
(§1) Expression of HCV IRES driven luciferase reporter activity and HCV RNA is measured to obtain indirect and direct measures of replication of HCV RNA respectively. Inhibitors of HCV replication and/or proliferation are determined by initially identifying molecules that inhibit expression of the HCV IRES driven luciferase reporter in this HCV Replicon Luciferase Assay. Cell viability assays and control cell based luciferase assays are then run on hits identified in the HCV Replicon Luciferase Assay to eliminate cytoxic compounds and non-specific compounds which act by inhibiting the luciferase enzyme.
Day 0, Cell Seeding and Compound Treatment: Huh-Luc-Neo Cells are seeded at 25,000/well in an opaque-walled 96 plate with Growth Medium (DMEM phenol red free+PS+2 mM glutamine; 100 μl/well). The compounds to be tested are added to the experimental wells (10 μl/well at 10× assay concentration) and the cells are then incubated (5% CO2, 37° C.) for 48 h.
Day 2, Reagent Preparation and Luciferase Assay: The Bright-Glo Luciferase Assay Buffer (Promega) is thawed and equilibrated to room temperature prior to use. The lyophilized Bright-Glo Luciferase Assay Substrate is equilibrated to room temperature prior to use. 10 ml of Bright-Glo Luciferase Assay Buffer is transferred to 1 vial of Bright-Glo Luciferase Assay Substrate bottle and mixed by gently with a Vortex. 100 μl of Bright-Glo Luciferase Assay reagent (Bright-Glo Luciferase Assay Buffer+Bright-Glo Luciferase Assay Substrate Mixture) is added to each well. The well contents are mixed for 5 min. on an orbital shaker at room temperature to induce cell lysis and the luminescence is then measured using a luminometer. The data is analyzed and IC50s are determined using GraphPad Prism 4 software. Hits validated in the Replicon Luciferase assay have IC50s<8.0 μM and show <30% inhibition of Cell Viability at a compound concentration of 100 μM (Cell Titer Glow Assay, cell viability assay conditions identical to HCV Replicon Luciferase Assay conditions).
(In general: In antiviral work, replicon cells carry a viral genome segment that copies itself.)

A further data set deals with HCV RNA. Put plainly: HCV Replicon RNA Assay (Taqman). In kind it is cell-based, Hepatitis C virus. To be noted: Huh-Luc-Neo cells, compound re-added at 24 h, HCV RNA by quantitative PCR, read-out: Replicon Inhibition*, Taqman. As to the method:
as §1
Day 0, Cell Seeding and Compound Treatment: Huh-Luc-Neo Cells are seeded at 25,000/well in an opaque-walled 96 plate with Growth Medium (DMEM phenol red free+PS+2 mM glutamine; 100 μl/well). The compounds to be tested are added to the experimental wells (10 μl/well at 10× assay concentration) and the cells are then incubated (5% CO2, 37° C.).
Day 1, Media Change and Compound Treatment: 24 hours after the initial compound treatment the cell culture media is aspirated from the wells and fresh Growth Medium is added (DMEM phenol red free+PS+2 mM glutamine; 100 μl/well). The compounds to be tested are then added to the appropriate experimental wells (10 μl/well at 10× assay concentration) and the cells are then incubated (5% CO2, 37° C.) for an additional 24 hrs.
Day 2, RNA Isolation and cDNA Synthesis: The cells are washed with 1× Phosphate Buffered Saline (PBS) once.
Day 3, Quantitative PCR Based Measurement of HCV RNA (Taqman Assay): Quantitative PCR analysis to measure HCV RNA expression from cDNA synthesized on Day 2 is performed using the ABI 9700 HT Sequence Detection System (Applied Biosystems) as previously described (Lohman et al, Science 285, 110-113, 1999). The data is analyzed and IC50s are determined using GraphPad Prism 4 software. Hits validated in the Replicon RNA Assay have IC50s<8.0 μM and show <30% inhibition of Cell Viability at a compound concentration of 50 μM (Cell Titer Glow Assay, cell viability assay conditions identical to HCV Replicon RNA Assay conditions).

In a further data set the test system is Huh-Luc-Neo Cells. Put plainly: CellTiter-Glo Cell Viability Assay. To be noted: 48 h, read-out: Cytotoxicity*. The format is cell-based, human. As to the method: (§2) Day 0, Cell Seeding and Compound Treatment: Huh-Luc-Neo Cells are seeded at 25,000/well in an opaque-walled 96 plate with Growth Medium (DMEM phenol red free+PS+2 mM glutamine; 100 ul/well). The compounds to be tested for inhibition of cell viability are added to the experimental wells (10 μl/well at 10× assay concentration) and the cells are then incubated (5% CO2, 37° C.) for 48 h.
(§3) Day 2, Reagent Preparation and Assay: The CellTiter-Glo Buffer is thawed and equilibrated to room temperature prior to use. The lyophilized CellTiter-Glo Substrate is equilibrated to room temperature prior to use. 10 ml of CellTiter-Glo Buffer is transferred to 1 vial of CellTiter-Glo Substrate and mixed by gently with a Vortex. 100 μl of CellTiter-Glo Assay reagent (CellTiter-Glo Buffer+CellTiter-Glo Substrate Mixture) is added to each well. The well contents are mixed for 5 min. on an orbital shaker at room temperature to induce cell lysis and the luminescence is then measured using a luminometer.

Data set [1] can be described thus: CellTiter-Glo Cell Viability Assay. In kind it is cell-based, human. To be noted: human, Huh-Luc-Neo cells, read-out: Cytotoxicity*. As to the method: as §2, §3
On the technique in general: ATP-based viability assays read luminescence as a measure of living cells.

In the case of `Cn1c(=O)cc(Sc2ccccc2F)c2ccccc21` [compound 005], the IC50 in the data set on HCV Replicon (Hepatitis C virus) was 1000 to 10000 nM; with HCV RNA (Hepatitis C virus), 1000 to 10000 nM; with Huh-Luc-Neo Cells it was 10 to 100 µM.
In the case of `Cn1c(=O)cc(Sc2ccccc2F)c2ccccc21` [compound 008], the IC50 was 1000 to 10000 nM with HCV Replicon, 1000 to 10000 nM with HCV RNA and over 100 µM in the data set on Huh-Luc-Neo Cells.
Turning to `Cc1ccc2c(c1)c(Sc1ccc(N)cc1)cc(=O)n2C` [compound 033], the IC50 in the data set with HCV Replicon (Hepatitis C virus) and in the data set on HCV RNA (Hepatitis C virus) was under 1000 nM throughout. The IC50 at 48 h in data set [1] is over 100 µM.
Consider `Cc1ccc(Sc2cc(=O)n(C)c3cc(C)c(C)cc23)cc1` [compound 034], for which the IC50 in the data set on HCV Replicon (Hepatitis C virus) and with HCV RNA (Hepatitis C virus) was under 1000 nM throughout. For the same molecule, the IC50 at 48 h in data set [1] was over 100 µM.
On to `Cc1cc2c(Sc3ccc(N)cc3)cc(=O)n(C)c2cc1C` [compound 035], for which the IC50 in the data set with HCV Replicon (Hepatitis C virus) and in the data set on HCV RNA (Hepatitis C virus) was under 1000 nM in each case. In data set [1], the IC50 at 48 h was over 100 µM.
As to `Cc1ccc(NC(=S)Nc2ccc(Sc3cc(=O)n(C)c4ccc(C)cc34)cc2)cc1` [compound 036], the IC50 with HCV Replicon (Hepatitis C virus) and in the data set on HCV RNA (Hepatitis C virus) was 1000 to 10000 nM in each case. For the same molecule, the IC50 at 48 h in data set [1] is over 100 µM.
On to `Cc1cc2c(Sc3ccc(F)cc3)cc(=O)n(C)c2cc1C` [compound 037], for which the IC50 with HCV Replicon (Hepatitis C virus) and with HCV RNA (Hepatitis C virus) was under 1000 nM in each case. The IC50 at 48 h in data set [1] is over 100 µM.
Regarding `CCc1ccc2c(c1)c(Sc1ccc(N)cc1)cc(=O)n2C` [compound 038], the IC50 in the data set on HCV Replicon (Hepatitis C virus) and in the data set with HCV RNA (Hepatitis C virus) was under 1000 nM each time. In addition, the IC50 at 48 h in data set [1] is over 100 µM.
